What is called Ki is the dissociation constant of the complex between target and ligand, obtained from inhibition or displacement.

We go through 27 molecules from patent US8138189B2, “Substituted benzene compounds as modulators of the glucocorticoid receptor” (Hoffman-La Roche Inc., priority 2009, dated 2012).

The target of this test is T1, full length human recombinant glucocorticoid receptor (Homo sapiens, UniProt P04150).
T1 construct: partially purified full length human recombinant glucocorticoid receptor; purchased Panvera/Invitrogen PV4302
T1 sequence (P04150 1-777): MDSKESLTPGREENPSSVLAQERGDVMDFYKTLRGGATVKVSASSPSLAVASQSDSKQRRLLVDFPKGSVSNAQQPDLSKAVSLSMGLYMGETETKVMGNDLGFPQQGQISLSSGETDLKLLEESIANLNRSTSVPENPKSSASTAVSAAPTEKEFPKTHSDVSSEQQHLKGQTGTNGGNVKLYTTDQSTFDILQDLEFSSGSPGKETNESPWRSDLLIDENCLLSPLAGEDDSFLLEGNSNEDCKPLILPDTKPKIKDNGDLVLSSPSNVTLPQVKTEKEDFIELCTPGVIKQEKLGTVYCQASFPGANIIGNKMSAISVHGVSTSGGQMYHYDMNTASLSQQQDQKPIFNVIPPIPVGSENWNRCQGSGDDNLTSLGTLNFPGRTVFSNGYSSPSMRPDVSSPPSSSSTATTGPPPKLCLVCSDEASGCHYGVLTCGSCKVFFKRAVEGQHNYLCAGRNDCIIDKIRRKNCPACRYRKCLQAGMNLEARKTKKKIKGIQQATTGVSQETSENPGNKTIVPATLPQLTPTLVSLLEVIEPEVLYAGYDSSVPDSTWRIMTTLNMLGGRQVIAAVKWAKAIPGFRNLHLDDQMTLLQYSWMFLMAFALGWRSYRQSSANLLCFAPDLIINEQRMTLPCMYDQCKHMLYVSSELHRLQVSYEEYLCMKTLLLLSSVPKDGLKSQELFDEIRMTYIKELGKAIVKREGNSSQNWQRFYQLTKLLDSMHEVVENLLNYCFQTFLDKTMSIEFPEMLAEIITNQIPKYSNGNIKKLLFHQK
Nature of the test: Glucocorticoid Receptor Binding Assay (fluorescence polarization competitor assay, Fluormone GS Far Red tracer). Summed up: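 Partially purified full-length recombinant human GR with a stabilizing coactivator peptide was incubated with Fluormone GS Far Red tracer and serially diluted compound for 3 h at 22 °C in the dark, pH 7.4. Fluorescence polarization was read at 610-660 nm. IC50 came from sigmoidal fitting, and Ki from Cheng-Prusoff.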
In general terms: Fluorescence polarisation rises when a labelled molecule tumbles more slowly, as on binding a larger partner.
Regarding `Cc1cc(C(O)(C(C)c2ccc(CCc3ccc(C(=O)O)cc3)cc2Cl)C(F)(F)F)ccn1` (stereo not drawn) [Example 67, 4-(2-{3-Chloro-4-[3,3,3-trifluoro-2-hydroxy-1-methyl-2-(2-methyl-pyridin-4-yl)-propyl]-phenyl}-ethyl)-benzoic acid], the Ki was 24.4 nM.

On to `CC(c1ccc(NC(=O)c2ccc(C(=O)O)cc2)cc1Cl)C(O)(c1ccnc(Cl)c1)C(F)(F)F` (stereo not drawn) [Example 69, N-{3-Chloro-4-[2-(2-chloro-pyridin-4-yl)-3,3,3-trifluoro-2-hydroxy-1-methyl-propyl]-phenyl}-terephthalamic acid], for which the Ki was determined as 116 nM.

On to `CC(c1ccc(NC(=O)c2cccc(C(=O)O)c2)cc1Cl)C(O)(c1ccnc(Cl)c1)C(F)(F)F` (stereo not drawn) [Example 70, N-{3-Chloro-4-[2-(2-chloro-pyridin-4-yl)-3,3,3-trifluoro-2-hydroxy-1-methyl-propyl]-phenyl}-isophthalamic acid], for which the Ki was 315 nM.

With `CC(c1ccc(NC(=O)c2cccc(CC(=O)O)c2)cc1Cl)C(O)(c1ccnc(Cl)c1)C(F)(F)F` (stereo not drawn) [Example 73, (3-{3-Chloro-4-[2-(2-chloro-pyridin-4-yl)-3,3,3-trifluoro-2-hydroxy-1-methyl-propyl]-phenylcarbamoyl}-phenyl)-acetic acid], the Ki amounted to 93.5 nM.

On to `CC(c1ccc(NS(=O)(=O)c2ccc(C(=O)O)cc2)cc1Cl)C(O)(c1ccnc(Cl)c1)C(F)(F)F` (stereo not drawn) [Example 76, 4-{3-Chloro-4-[2-(2-chloro-pyridin-4-yl)-3,3,3-trifluoro-2-hydroxy-1-methyl-propyl]-phenylsulfamoyl}-benzoic acid], for which the Ki worked out at 178 nM.

Consider `CC(c1ccc(Nc2ccc(C(=O)O)cc2)cc1Cl)C(O)(c1ccnc(Cl)c1)C(F)(F)F` (stereo not drawn) [Example 77, 4-{3-Chloro-4-[2-(2-chloro-pyridin-4-yl)-3,3,3-trifluoro-2-hydroxy-1-methyl-propyl]-phenylamino}-benzoic acid], for which the Ki was 13.9 nM.

Turning to `CC(c1ccc(N(c2ccc(C(=O)O)cn2)c2ccc(C(=O)O)cn2)cc1Cl)C(O)(c1ccnc(Cl)c1)C(F)(F)F` (stereo not drawn) [Example 78, 6,6′-(3-Chloro-4-(3-(2-chloropyridin-4-yl)-4,4,4-trifluoro-3-hydroxybutan-2-yl)phenylazanediyl)dinicotinic acid], the Ki turned out to be 76.7 nM.

In the case of `CC(c1ccc(Oc2ccc(CC(=O)O)cc2)cc1Cl)C(O)(c1ccnc(Cl)c1)C(F)(F)F` (stereo not drawn) [Example 79, (4-{3-Chloro-4-[2-(2-chloro-pyridin-4-yl)-3,3,3-trifluoro-2-hydroxy-1-methyl-propyl]-phenoxy}-phenyl)-acetic acid], the Ki came out at 13.4 nM.

Consider `CC(c1ccc(Oc2ccc(C(=O)O)cc2)cc1Cl)C(O)(c1ccnc(Cl)c1)C(F)(F)F` (stereo not drawn) [Example 80, 4-{3-Chloro-4-[2-(2-chloro-pyridin-4-yl)-3,3,3-trifluoro-2-hydroxy-1-methyl-propyl]-phenoxy}-benzoic acid], for which the Ki was 2.1 nM.

As for `CC(c1ccc(Oc2ccc(C(=O)O)nc2)cc1Cl)C(O)(c1ccnc(Cl)c1)C(F)(F)F` (stereo not drawn) [Example 81, 5-{3-Chloro-4-[2-(2-chloro-pyridin-4-yl)-3,3,3-trifluoro-2-hydroxy-1-methyl-propyl]-phenoxy}-pyridine-2-carboxylic acid], the Ki was determined as 26.5 nM.

For `CC(c1ccc(Oc2ccc(C(=O)O)c(Cl)c2)cc1Cl)C(O)(c1ccnc(Cl)c1)C(F)(F)F` (stereo not drawn) [Example 82, 2-Chloro-4-{3-chloro-4-[2-(2-chloro-pyridin-4-yl)-3,3,3-trifluoro-2-hydroxy-1-methyl-propyl]-phenoxy}-benzoic acid], the Ki turned out to be 5.1 nM.

`CC(c1ccc(Oc2ccc(C(=O)O)c(F)c2)cc1Cl)C(O)(c1ccnc(Cl)c1)C(F)(F)F` (stereo not drawn) [Example 83, 4-{3-Chloro-4-[2-(2-chloro-pyridin-4-yl)-3,3,3-trifluoro-2-hydroxy-1-methyl-propyl]-phenoxy}-2-fluoro-benzoic acid]: the Ki was determined as 5.6 nM.

`CC(c1ccc(Oc2ccccc2C(=O)O)cc1Cl)C(O)(c1ccnc(Cl)c1)C(F)(F)F` (stereo not drawn) [Example 84, 2-{3-Chloro-4-[2-(2-chloro-pyridin-4-yl)-3,3,3-trifluoro-2-hydroxy-1-methyl-propyl]-phenoxy}-benzoic acid]: the Ki came out at 35.5 nM.

As to `CC(c1ccc(Oc2ccc(OCC(=O)O)cc2)cc1Cl)C(O)(c1ccnc(Cl)c1)C(F)(F)F` (stereo not drawn) [Example 85, (4-{3-Chloro-4-[2-(2-chloro-pyridin-4-yl)-3,3,3-trifluoro-2-hydroxy-1-methyl-propyl]-phenoxy}-phenoxy)-acetic acid], the Ki turned out to be 1.4 nM.

Regarding `COc1cc(Oc2ccc(C(C)C(O)(c3ccnc(Cl)c3)C(F)(F)F)c(Cl)c2)ccc1C(=O)O` (stereo not drawn) [Example 86, 4-{3-Chloro-4-[2-(2-chloro-pyridin-4-yl)-3,3,3-trifluoro-2-hydroxy-1-methyl-propyl]-phenoxy}-2-methoxy-benzoic acid], the Ki was determined as 16.4 nM.

As for `CC(c1ccc(Oc2cccc(CC(=O)O)c2)cc1Cl)C(O)(c1ccnc(Cl)c1)C(F)(F)F` (stereo not drawn) [Example 87, (3-{3-Chloro-4-[2-(2-chloro-pyridin-4-yl)-3,3,3-trifluoro-2-hydroxy-1-methyl-propyl]-phenoxy}-phenyl)-acetic acid], the Ki was 15.1 nM.

For `CC(c1ccc(Oc2ccc(C(=O)O)cc2F)cc1Cl)C(O)(c1ccnc(Cl)c1)C(F)(F)F` (stereo not drawn) [Example 88, 4-{3-Chloro-4-[2-(2-chloro-pyridin-4-yl)-3,3,3-trifluoro-2-hydroxy-1-methyl-propyl]-phenoxy}-3-fluoro-benzoic acid], the Ki stood at 1.2 nM.

Regarding `CC(c1ccc(Oc2ccc(C(=O)O)cc2Cl)cc1Cl)C(O)(c1ccnc(Cl)c1)C(F)(F)F` (stereo not drawn) [Example 89, 3-Chloro-4-{3-chloro-4-[2-(2-chloro-pyridin-4-yl)-3,3,3-trifluoro-2-hydroxy-1-methyl-propyl]-phenoxy}-benzoic acid], the Ki amounted to 3.4 nM.

In the case of `CC(c1ccc(Oc2ccc(Cl)c(C(=O)O)c2)cc1Cl)C(O)(c1ccnc(Cl)c1)C(F)(F)F` (stereo not drawn) [Example 90, 2-Chloro-5-{3-chloro-4-[2-(2-chloro-pyridin-4-yl)-3,3,3-trifluoro-2-hydroxy-1-methyl-propyl]-phenoxy}-benzoic acid], the Ki was found to be 4.5 nM.

As for `CC(c1ccc(Oc2ccc(F)c(C(=O)O)c2)cc1Cl)C(O)(c1ccnc(Cl)c1)C(F)(F)F` (stereo not drawn) [Example 91, 5-{3-Chloro-4-[2-(2-chloro-pyridin-4-yl)-3,3,3-trifluoro-2-hydroxy-1-methyl-propyl]-phenoxy}-2-fluoro-benzoic acid], the Ki worked out at 7.1 nM.

For `CCOC(=O)c1ccc(COc2ccc(C(C)C(O)(c3ccnc(C)c3)C(F)(F)F)c(Cl)c2)cc1` (stereo not drawn) [Example 93, 4-{3-Chloro-4-[3,3,3-trifluoro-2-hydroxy-1-methyl-2-(2-methyl-pyridin-4-yl)-propyl]-phenoxymethyl}-benzoic acid ethyl ester], the Ki is 8.2 nM.

In the case of `Cc1cc(C(O)(C(C)c2ccc(OCc3ccc(C(=O)O)cc3)cc2Cl)C(F)(F)F)ccn1` (stereo not drawn) [Example 94, 4-{3-Chloro-4-[3,3,3-trifluoro-2-hydroxy-1-methyl-2-(2-methyl-pyridin-4-yl)-propyl]-phenoxymethyl}-benzoic acid], the Ki amounted to 4 nM.

As to `COC(=O)c1ccc(COc2ccc(C(C)C(O)(c3ccnc(C)c3)C(F)(F)F)c(Cl)c2)c(OC)c1` (stereo not drawn) [Example 95, 4-{3-Chloro-4-[3,3,3-trifluoro-2-hydroxy-1-methyl-2-(2-methyl-pyridin-4-yl)-propyl]-phenoxymethyl}-3-methoxy-benzoic acid methyl ester], the Ki is 3.6 nM.

Take `COc1cc(C(=O)O)ccc1COc1ccc(C(C)C(O)(c2ccnc(C)c2)C(F)(F)F)c(Cl)c1` (stereo not drawn) [Example 96, 4-{3-Chloro-4-[3,3,3-trifluoro-2-hydroxy-1-methyl-2-(2-methyl-pyridin-4-yl)-propyl]-phenoxymethyl}-3-methoxy-benzoic acid]: the Ki worked out at 6.1 nM.

Turning to `CCOC(=O)c1ccc(COc2ccc(C(C)C(O)(c3ccnc(C)c3)C(F)(F)F)c(Cl)c2)cn1` (stereo not drawn) [Example 97, 5-{3-Chloro-4-[3,3,3-trifluoro-2-hydroxy-1-methyl-2-(2-methyl-pyridin-4-yl)-propyl]-phenoxymethyl}-pyridine-2-carboxylic acid ethyl ester], the Ki was 9.1 nM.

Regarding `Cc1cc(C(O)(C(C)c2ccc(OCc3ccc(C(=O)O)nc3)cc2Cl)C(F)(F)F)ccn1` (stereo not drawn) [Example 98, 5-{3-Chloro-4-[3,3,3-trifluoro-2-hydroxy-1-methyl-2-(2-methyl-pyridin-4-yl)-propyl]-phenoxymethyl}-pyridine-2-carboxylic acid], the Ki turned out to be 40.9 nM.

In the case of `COC(=O)c1ccnc(COc2ccc(C(C)C(O)(c3ccnc(C)c3)C(F)(F)F)c(Cl)c2)c1` (stereo not drawn) [Example 99, 2-{3-Chloro-4-[3,3,3-trifluoro-2-hydroxy-1-methyl-2-(2-methyl-pyridin-4-yl)-propyl]-phenoxymethyl}-isonicotinic acid methyl ester], the Ki was determined as 9.1 nM.
